For one data set, the system named is Caco-2 and HT-29 cells. The experiment in a line: Cytotoxicity, XTT viability assay, stated for both cell lines. The class given is cell-based, human. The settings on record: 125 µM, 48 h. How it is done: The suspension was added to a 96-well plate. […] Cell viability was determined using the following steps.
Data set [1] can be described thus: Cytotoxicity, XTT viability assay, HT-29. Conditions: human, HT-29 cells, CC50 HT-29, 48 h, XTT. How it is done: (§1) The cytotoxicity assay was performed to evaluate the effect of the selected compounds on human cells. Colon cells were used because they are cell lines like those present in the microenvironment where G. lamblia colonizes, which is the small intestine of the host. The assay was performed using the human cell lines Caco-2 (ATCC HTB-37) and HT-29 (ATCC […]). Cell viability was determined using the Cell Proliferation Kit II (XTT, St. Louis, MO, EE. UU.). A cell suspension of 2 × 10^3 cells/mL was prepared in Dulbecco’s modified Eagle’s medium (DMEM) supplemented with 10% inactivated fetal bovine serum and an antibiotic (1% penicillin/streptomycin, 5000 U/mL, in a volume of 100 µL). The suspension was added to a 96-well plate. The plates were incubated for 24 h at 37 °C in a 5% CO2 atmosphere. […] The cells were incubated for 48 h at 37 °C in a 5% CO2 atmosphere. Cell viability was determined using the following steps. The medium in each well was replaced with 100 µL of fresh medium, and 50 µL of XTT labeling mix was added per well. The reaction was incubated for four hours at 37 °C and 5% CO2. After incubation, the absorbance of the samples on the plate was measured at 450 nm. Each compound was assayed in triplicate in three independent experiments. CC50 values (μM) were determined using the nonlinear regression function of GraphPad Prism version 8 for Windows.
Background: Tetrazolium dyes change colour on reduction, which living cells bring about.

The test system of a further data set is HT-29 cells. The experiment in a line: Cytotoxicity, XTT viability assay, HT-29. The settings on record: CC50 HT-29 / IC50 trophozoite ATCC strain 30957. How it is done:
as §1

Data set [2] has as its system G6PD::6PGL enzyme of G. lamblia. Conditions: cited from earlier work.
Data set [3] concerns G. lamblia strain ATCC 30957. The experiment in a line: Viability of Giardia lamblia trophozoite culture (trypan blue count). The class given is cell-based. How it is done:
Viability analysis was performed on G. lamblia strain ATCC 30957 grown in TYI-S-33 medium supplemented with 10% fetal bovine serum (FBS) and an antibiotic. Pre-culture was performed in 16 × 150 mm borosilicate tubes with a medium inoculated with 2 × 10^5 trophozoites and incubated at 37 °C for 48 h. For the recovery of the trophozoites, the vial was incubated in ice for 8 min and centrifuged for 6 min at 2000 rpm. The concentrated trophozoites were suspended in 1 mL of phosphate-buffered saline (PBS), and the number of trophozoites was counted by placing a 1:1 volume ratio of cell culture and trypan blue dye (4 g/L); then, a homogeneous drop of the mixture was taken and placed in the Neubauer chamber, and the total cells were counted.
The curves were plotted for concentrations of 0–50 µM of each compound. The assay was performed by placing 1.5 × 10^5 cells in 1.5 mL microcentrifuge tubes with a supplemented medium and different concentrations of each compound (0–50 µM). The negative control was performed under the same conditions without a compound, and the drugs NTZ and MTZ were used as positive controls. The samples were incubated for 48 h at 37 °C. At the end of the incubation, the cell viability count was performed using the trypan blue technique. The viability calculation was performed following the formula nv/(nv + nm), where nv represents the live cells and nm represents the dead cells; the viability value obtained was expressed as a percentage. The IC50 value of each compound was determined using the IC50 Calculator software (https://www.aatbio.com/tools/ic50-calculator).

Data set [4] relates to G. lamblia strain resistant to nitazoxanide. The experiment in a line: Giardicidal activity in nitazoxanide-resistant strain (trypan blue count). It is filed as cell-based. The settings on record: Giardia duodenalis, 48 h, read-out: IC50 G. lamblia (NTZ Resistant). The procedure:
A pre-culture at confluence was used as a starting point, and a concentration–response curve was plotted using an initial compound concentration of 25 μM in a final volume of 1.5 mL of TYI-S-33 medium, followed by serial dilutions of the compound. Each treatment was inoculated with 1.5 × 10^5 trophozoites and incubated for 48 h at 37 °C. At the end of the incubation, the number of trophozoites was determined using the trypan blue assay and by counting in a Neubauer chamber. The viability percentage at each compound concentration was calculated using the negative control as a reference.

For a further data set, the system named is G. lamblia trophozoites. The experiment in a line: Cell damage by transmission electron microscopy. It is filed as cell-based, Giardia lamblia. Conditions: IC50 concentration, 24 h. How it is done: The trophozoites were incubated for 24 h at 37 °C and then collected by cooling them in an ice bath for 10 min and centrifuging at 2000 rpm for 7 min. The samples were sent for preparation and observation at the Instituto de Fisiología Celular, UNAM. The analysis was performed using a JEOL-JEM-1200 transmission electron microscope (JEOL LTD, Tokyo, Japan) equipped with a GATAN CCD camera at the Imaging Unit of the Institute of Cellular Physiology, UNAM.

Data set [5] can be described thus: Cytotoxicity, XTT viability assay, Caco-2. The settings on record: human. How it is done: as §1

Take `CCCCC(=O)Nc1ncc([N+](=O)[O-])s1` [FLP-2, N-(5-Nitro-1,3-thiazol-2-yl)pentanamide]: the “Decrease of cell viability” value with Caco-2 and HT-29 cells was “up to 20%”. Also, the cytotoxic concentration (CC50) at 48 h was found to be 1910 µM in data set [1] and 3180 µM in data set [5] (Caco-2, CC50 Caco-2, 48 h, XTT). In the data set with HT-29 cells, the “Selectivity index (CC50/IC50) HT-29” value stood at 531. The “Inhibition of the G6PD::6PGL enzyme (in words)” value in data set [2] was “inhibitors of the G6PD enzyme”. For the same compound, the “Inhibition of growth of G. lamblia parasite culture” value in data set [3] (concentration not given) is “more than 98%”. The “Relative potency compared with NTZ” value in data set [3] (ratio of IC50 values, ATCC strain) is given as 1.2 times. Besides, the IC50 in data set [4] turned out to be 0.37 µM. Also, the “Ultrastructural effect on trophozoites (TEM)” value in the data set with G. lamblia trophozoites is recorded as “significant morphological alterations”. The selectivity ratio at 48 h in data set [5] (Caco-2) is 884.

Broadly, the CC50 is the concentration that lowers cell viability or growth by half. A word on the IC50: it is the concentration at which inhibition is half-maximal.
